Data published in patent US7166744B2, “Retinoid derivatives and methods for producing said compounds and anti-cancer pharmaceutical composition comprising said compounds” (Chebigen Co., Ltd., priority 2001, dated 2007).
“Also recorded” adds a separate entry of the source.

Experiments:
Format in all cases: cell-based
HepG2 liver cancer cells = assay: MTT proliferation assay, HepG2
Protocol: The effects of test compounds on proliferation of various cancer cells was examined by 3-(4,5-dimethylthiazol-2-yl)-2,5-diphenyltetrazolium bromide (MTT, Sigma) assay in a dose dependent manner. In the MTT assay, colon, liver, cervix, ovary, and breast cancer cell lines were treated with test compounds at various concentrations. Living cancer cells reduce MTT to dark blue MTT formazan that would be measured by absorbance.
Colon cancer cells, HCT116, DLD-1 and HT29, cervix cancer cells, HeLa and CaSki, ovary cancer cells, SKOV-3, 2774 and OVCAR-3, liver cancer cells, SK-Hep-1, PLCPRF5 and HepG2, and breast cancer cells, ZR75-1 and MDA-MB 231 were seeded at an initial density of 3000 cells per well in 96-well plates. After attachment of cells to the walls of the wells, the medium containing fresh retinoid was treated with various concentrations (0.5 μM, 1 μM, 2.5 μM, 5 μM, 10 μM) for 48 hours. 50 μl of MTT solution (2 mg/ml in PBS) was added to cell culture media. The reaction micture was incubated at 37° C. in a 5% CO2 atmosphere for 4 hours. The supernatant was removed and 150 μl of DMSO was added. The optical density was measured spectrophotometrically at 550 nm. […] For other retinoid derivatives according to the present invention, absorbances were measured by this procedure and IC50 values, concentrations required for 50% growth inhibition, were determined.

[1] = tested on: HCT116 colon cancer cells; assay: Trypan blue surviving cell count, HCT116; details: for relative surviving cells (%): trypan blue
Source text: Surviving cells, which had not be stained by trypan blue were counted and the results are shown in Table 3 as relative surviving cells (%).

AP-1 (c-Jun) = assay: AP-1 CAT reporter assay (c-Jun cotransfection); details: 1 μM; for AP-1 reporter CAT expression, −c-Jun/−RARα: control = 1.0; for AP-1 reporter CAT expression, +c-Jun/+RARα / AP-1 reporter CAT expression, +c-Jun/−RARα: control = 5.0; for suppression of AP-1 activity: Experimental Example 5; for repression of AP-1 activity: Experimental Example 10, text
Source text: As the reporter gene, the CAT enzyme gene with a site recognizing AP-1 of collagenase was used.

[2] = tested on: HCT116 colon cancer cells; assay: DNA fragmentation assay (agarose gel), HCT116; details: for fragmentation of chromosomal DNA (agarose gel): Experimental Example 8, cells treated as above; for DNA ladder (DNA fragmentation): HCT116, 2.5, 5.0, 10 μM, 48 hours
Protocol: After treated with each retinoid derivative at various concentrations (2.5, 5.0, 10 μM) for 48 hours, HCT116 or MCF-7 cells were poured in 1 mL of PBS and centrifuged at a rate of 13,000 rpm at 4° C. for 1 min. The resulting cell pellets were resuspended in 700 μl of lysis buffer (500 mM Tris, 100 mM EDTA, 0.5% SDS) containing 17.5 μl of proteinase K (20 mg/ml), and incubated on 55° C. water bath for 3 hours. The lysates were mixed with 700 μl of phenol solution while slowly stirring and centrifuged at 12,000 rpm for 5 min. The supernatants were separated and extracted with phenol once more. The supernatants were mixed with 600 μl of 100% ethanol and 60 μl of 3M NaOAc (pH 7.0) and left at −20° C. for 2 hours. The supernatants were removed by centrifugation at 12,000 rpm for 10 min to obtain pellets. After 70% ethanol washing and drying, DNA pellet was resuspended in 100 μl of TE (Tris-EDTA) buffer and treated with RNase A. The obtained samples were electrophoresed for 2 hours at 75 V on 1.8% agarose gels.
In order to confirm the above results, DNA was separated from the cells treated as above and examined for DNA fragmentation by agarose gel electrophoresis (FIG. 13).

RARβ = biological target: T1, RARβ (Homo sapiens, UniProt P10826); assay: CAT reporter assay, RARβ; details: 1 μM, control = 1.0; for expression level of CAT enzyme, RARβ −: column '−'
T1 construct: expressed in transfected cells
T1 sequence (P10826 1-455): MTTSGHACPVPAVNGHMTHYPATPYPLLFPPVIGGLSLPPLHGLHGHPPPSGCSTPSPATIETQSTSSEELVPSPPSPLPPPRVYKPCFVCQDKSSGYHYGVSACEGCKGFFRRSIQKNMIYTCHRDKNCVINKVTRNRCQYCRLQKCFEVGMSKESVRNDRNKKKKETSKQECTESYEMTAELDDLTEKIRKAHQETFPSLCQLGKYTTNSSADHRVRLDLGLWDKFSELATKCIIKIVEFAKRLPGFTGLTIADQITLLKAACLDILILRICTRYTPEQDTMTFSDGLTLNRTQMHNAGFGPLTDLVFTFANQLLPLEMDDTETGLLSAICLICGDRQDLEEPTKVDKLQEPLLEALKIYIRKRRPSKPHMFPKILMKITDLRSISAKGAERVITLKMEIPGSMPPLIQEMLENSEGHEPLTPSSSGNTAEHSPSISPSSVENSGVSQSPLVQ
Source text: In order to confirm the effect of KCBG60 according to the present invention on retinoid receptor activity, cells were cotransfected with expression vectors of receptor subfamilies and reporter genes. As the reporter gene, chloramphenicol acetyltransferase (CAT) with a transcription control site reactive to respective receptors was used.

[3] = tested on: HCT116 colon cancer cells; assay: DAPI staining of nuclei, HCT116; details: for nuclear condensation and fragmentation (DAPI): HCT116, 5 μM, 36 h; for nuclear condensation (DAPI): HCT116, Experimental Example 8
Protocol: By DAPI (4,6-diamidino-2-phenylindole) staining assay for staining DNA in cellular nucleus, nuclear condensation and fragmentation, characteristic features of apoptosis, were observed. […] In FIG. 4, the control represents non-treated cells. The sub-G1 DNA contents of colon cancer HTC116 cells and breast cancer MCF-7 cells were measured by FACS (Fluorescence-Activated Cell Sorter) assay to quantify the apoptosis (FIG. 5). Finally, in order to further characterize the apoptosis observed in retinoid derivative-treated cells, the cleavage of apoptosis-related proteins, including PARP (poly(ADP-ribose)polymerase) and CPP32 (caspase-3) by Western blotting. […] PARP cleavage occurred in a time-dependent manner, in parallel with the induction of apoptosis (FIG. 6B). C in FIG. 6 represents the result of Western blotting of non-treated cells.
Meanwhile, HPR which is a precursor during the synthesis process of KCBG60 is known to induce apoptosis. Considering that the cells aggregated into small spherical mass upon treatment with KCBG60, KCBG60 is expected to induce apoptosis. In order to confirm apoptosis induced by KCBG60 once again, KCBG60-treated HCT116 cells were stained with DAPI and observed for nuclear condensation, an indicative of apoptosis (FIG. 12).

Molecule	IC50 (HepG2 liver cancer cells; Homo sapiens, HepG2, 48 hours)	IC50 (HepG2 liver cancer cells; 48 hours)	inhibition at 10 µM ([1]; Homo sapiens, HCT-116, HCT116, 10 μM, read-out: inhibition of proliferation)	AP-1 reporter CAT expression, −c-Jun/−RARα (AP-1 (c-Jun))	AP-1 reporter CAT expression, +c-Jun/+RARα (AP-1 (c-Jun))	AP-1 reporter CAT expression, +c-Jun/−RARα (AP-1 (c-Jun))	fragmentation of chromosomal DNA (agarose gel) [2]	expression level of CAT enzyme, RARβ + (RARβ)	expression level of CAT enzyme, RARβ − (RARβ)	relative surviving cells (%) ([1]; HCT116, 0.5 μM)	relative surviving cells (%) ([1]; HCT116, 1 μM)	relative surviving cells (%) ([1]; HCT116, 5 μM)	relative surviving cells (%) ([1]; HCT116, 10 μM)	DNA ladder (DNA fragmentation) [2]	nuclear condensation and fragmentation (DAPI) [3]	suppression of AP-1 activity (AP-1 (c-Jun))	concentration at which inhibition of proliferation began ([1]; HCT116)	inhibition of proliferation ([1]; HCT116, 10 μM)	repression of AP-1 activity (AP-1 (c-Jun))	nuclear condensation (DAPI) [3]
CC1=C(/C=C/C(C)=C/C=C/C(C)=C/C(=O)O)C(C)(C)CCC1 [ATRA, All-trans-retinoic acid, reference compound]	> 500 µM	–	10 to 30%	0.6	2.0	3.5	DNA ladder caused by fragmentation of chromosomal DNA was detected	65.2	17.3	–	–	–	–	–	–	–	–	–	–	–
CC1=C(/C=C/C(C)=C/C=C/C(C)=C/C(=O)Nc2ccc(O)cc2)C(C)(C)CCC1 [HPR, (2E,4E,6E,8E)-[3,7-dimethyl-9-(2,6,6-trimethylcyclohex-1-enyl)-nona-2,4,6,8-tetraenoylamino]-4-hydroxyphenylamide]	–	> 100 µM	–	0.7	2.2	3.7	–	25.3	9.1	91%	70%	45%	13%	did not show any DNA ladder	largely showed nuclear fragmentation	–	–	–	–	–
CCCC(=O)Oc1ccc(NC(=O)/C=C(C)/C=C/C=C(C)/C=C/C2=C(C)CCCC2(C)C)cc1 [KCBG60]	–	–	–	0.6	2.4	3.6	DNA ladder caused by fragmentation of chromosomal DNA was detected	1.0	0.8	90%	75%	45%	10%	–	–	–	0.5 µM	more than 90%	about 50%	showed small spots, indicating nuclear condensation
phenyl butylate	–	–	–	1.0	5.3	4.7	did not induce any fragmentation of chromosomal DNA	0.9	0.7	103%	103%	95%	90%	–	–	–	–	–	did not affect	nuclei were observed normal

Further lines, with some results ahead:

IC50 (HepG2 liver cancer cells; Homo sapiens, HepG2, 48 hours)	IC50 (HepG2 liver cancer cells; 48 hours)	Molecule	inhibition at 10 µM ([1]; Homo sapiens, HCT-116, HCT116, 10 μM, read-out: inhibition of proliferation)	AP-1 reporter CAT expression, −c-Jun/−RARα (AP-1 (c-Jun))	AP-1 reporter CAT expression, +c-Jun/+RARα (AP-1 (c-Jun))	AP-1 reporter CAT expression, +c-Jun/−RARα (AP-1 (c-Jun))	fragmentation of chromosomal DNA (agarose gel) [2]	expression level of CAT enzyme, RARβ + (RARβ)	expression level of CAT enzyme, RARβ − (RARβ)	relative surviving cells (%) ([1]; HCT116, 0.5 μM)	relative surviving cells (%) ([1]; HCT116, 1 μM)	relative surviving cells (%) ([1]; HCT116, 5 μM)	relative surviving cells (%) ([1]; HCT116, 10 μM)	DNA ladder (DNA fragmentation) [2]	nuclear condensation and fragmentation (DAPI) [3]	suppression of AP-1 activity (AP-1 (c-Jun))	concentration at which inhibition of proliferation began ([1]; HCT116)	inhibition of proliferation ([1]; HCT116, 10 μM)	repression of AP-1 activity (AP-1 (c-Jun))	nuclear condensation (DAPI) [3]
–	> 100 µM	CCCC(=O)Oc1cc(O)ccc1NC(=O)/C=C(C)/C=C/C=C(C)/C=C/C1=C(C)CCCC1(C)C [KCBG10, 2.2-[(2E,4E,6E,8E)-3,7-Dimethyl-9-(2,6,6-trimethylcyclohex-1-enyl)-nona-2,4,6,8-tetraenoylamino]-5-hydroxyphenylbutanoate]	–	–	–	–	–	–	–	–	–	–	–	DNA band of the ladder shape caused by DNA fragmentation was well detected	largely showed nuclear fragmentation	~50%	–	–	–	–
–	> 100 µM	CCCC(=O)Nc1cc(NC(=O)/C=C(C)/C=C/C=C(C)/C=C/C2=C(C)CCCC2(C)C)ccc1O [KCBG41, (2E,4E,6E,8E)-[3,7-dimethyl-9-(2,6,6-trimethylcyclohex-1-enyl)-nona-2,4,6,8-tetraenoylamino]-(3-butyrylamino-4-hydroxy)phenylamide]	–	–	–	–	–	–	–	–	–	–	–	DNA band of the ladder shape caused by DNA fragmentation was well detected; also recorded: at a similar concentration showed DNA fragmentation	largely showed nuclear fragmentation	~50%	–	–	–	–
